US11306092B2, “Amino indole compounds useful as TLR inhibitors” (BRISTOL-MYERS SQUIBB COMPANY, priority 2017, dated 2022)

Experiments:
Assay type in all cases: cell-based
human TLR7 = molecular target: T1, human TLR7 (Homo sapiens, UniProt Q9NYK1); test: TLR7 inhibition reporter assay (HEK-Blue SEAP reporter); conditions: HEK-Blue cells overexpressing human TLR7; gardiquimod 7.5 μM; 22 hour incubation
T1 construct: host or cells: HEK-Blue cells
T1 sequence (Q9NYK1 27-1049): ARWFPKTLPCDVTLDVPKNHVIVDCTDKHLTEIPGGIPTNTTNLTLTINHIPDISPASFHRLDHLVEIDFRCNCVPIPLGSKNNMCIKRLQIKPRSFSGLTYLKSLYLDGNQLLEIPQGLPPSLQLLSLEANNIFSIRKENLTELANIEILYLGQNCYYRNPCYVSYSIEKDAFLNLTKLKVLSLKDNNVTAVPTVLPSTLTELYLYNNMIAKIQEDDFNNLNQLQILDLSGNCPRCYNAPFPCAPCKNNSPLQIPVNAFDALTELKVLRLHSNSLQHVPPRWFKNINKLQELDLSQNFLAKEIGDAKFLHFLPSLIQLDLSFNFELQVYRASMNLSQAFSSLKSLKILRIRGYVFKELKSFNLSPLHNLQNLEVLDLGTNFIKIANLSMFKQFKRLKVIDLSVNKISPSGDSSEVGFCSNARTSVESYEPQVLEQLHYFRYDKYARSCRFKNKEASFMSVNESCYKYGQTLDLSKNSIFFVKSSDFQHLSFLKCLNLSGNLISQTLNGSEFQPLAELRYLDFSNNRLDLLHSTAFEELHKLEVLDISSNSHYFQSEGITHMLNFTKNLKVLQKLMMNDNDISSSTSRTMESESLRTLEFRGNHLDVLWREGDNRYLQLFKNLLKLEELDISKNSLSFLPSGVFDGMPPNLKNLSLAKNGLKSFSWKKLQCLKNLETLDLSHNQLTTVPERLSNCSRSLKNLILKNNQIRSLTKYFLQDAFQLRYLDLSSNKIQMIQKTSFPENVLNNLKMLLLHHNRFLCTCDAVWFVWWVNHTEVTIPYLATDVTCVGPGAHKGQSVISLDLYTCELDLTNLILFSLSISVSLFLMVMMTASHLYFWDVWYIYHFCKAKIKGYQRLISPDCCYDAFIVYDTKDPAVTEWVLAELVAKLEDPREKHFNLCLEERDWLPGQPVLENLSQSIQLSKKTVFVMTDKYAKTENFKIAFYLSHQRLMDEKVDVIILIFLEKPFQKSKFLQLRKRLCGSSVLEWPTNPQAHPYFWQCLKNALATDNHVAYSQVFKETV
Method in brief: (§1)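 HEK-Blue cells overexpressing human TLR7, TLR8 or TLR9 carry a SEAP reporter driven by NF-κB/AP-1 sites. Compounds (0.05 nM–50 μM) were preincubated 30 min at room temperature, then cells were stimulated with gardiquimod 7.5 μM (TLR7), R848 15.9 μM (TLR8) or ODN2006 5 nM (TLR9) for 22 h at 37 °C.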

human TLR8 = molecular target: T2, human TLR8 (Homo sapiens, UniProt Q9NR97); test: TLR8 inhibition reporter assay (HEK-Blue SEAP reporter); conditions: HEK-Blue cells overexpressing human TLR8; R848 15.9 μM; 22 hour incubation
T2 construct: host or cells: HEK-Blue cells
T2 sequence (Q9NR97 27-1041): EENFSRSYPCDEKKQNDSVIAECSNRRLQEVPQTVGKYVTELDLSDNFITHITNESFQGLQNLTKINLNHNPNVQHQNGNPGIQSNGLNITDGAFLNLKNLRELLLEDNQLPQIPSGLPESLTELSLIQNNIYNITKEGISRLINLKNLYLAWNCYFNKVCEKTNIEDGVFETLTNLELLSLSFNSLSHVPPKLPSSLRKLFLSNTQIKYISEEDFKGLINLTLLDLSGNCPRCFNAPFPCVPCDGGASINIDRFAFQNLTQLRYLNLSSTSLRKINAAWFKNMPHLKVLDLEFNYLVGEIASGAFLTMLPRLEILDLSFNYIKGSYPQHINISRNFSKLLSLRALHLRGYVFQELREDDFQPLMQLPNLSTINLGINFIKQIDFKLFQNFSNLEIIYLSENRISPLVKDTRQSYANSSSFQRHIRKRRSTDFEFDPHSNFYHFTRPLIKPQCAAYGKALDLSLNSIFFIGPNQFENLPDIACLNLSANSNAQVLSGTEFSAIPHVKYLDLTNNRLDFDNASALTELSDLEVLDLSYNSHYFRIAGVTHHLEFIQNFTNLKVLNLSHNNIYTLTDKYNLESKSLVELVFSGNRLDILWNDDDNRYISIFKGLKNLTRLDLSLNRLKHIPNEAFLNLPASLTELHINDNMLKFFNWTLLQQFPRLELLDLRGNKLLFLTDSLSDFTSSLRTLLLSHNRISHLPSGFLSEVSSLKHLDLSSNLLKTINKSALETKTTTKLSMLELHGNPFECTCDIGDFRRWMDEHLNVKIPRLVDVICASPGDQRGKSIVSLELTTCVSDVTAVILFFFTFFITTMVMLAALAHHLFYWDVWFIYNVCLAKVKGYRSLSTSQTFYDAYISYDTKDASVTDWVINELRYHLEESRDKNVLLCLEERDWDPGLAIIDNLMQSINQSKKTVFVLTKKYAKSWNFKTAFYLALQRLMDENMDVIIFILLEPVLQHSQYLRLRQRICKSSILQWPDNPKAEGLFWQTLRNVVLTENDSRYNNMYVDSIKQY
Method in brief: as §1

human TLR9 = molecular target: T3, human TLR9 (Homo sapiens, UniProt Q9NR96); test: TLR9 inhibition reporter assay (HEK-Blue SEAP reporter); conditions: HEK-Blue cells overexpressing human TLR9; ODN2006 5 nM; 22 hour incubation
T3 construct: host or cells: HEK-Blue cells
T3 sequence (Q9NR96 26-1032): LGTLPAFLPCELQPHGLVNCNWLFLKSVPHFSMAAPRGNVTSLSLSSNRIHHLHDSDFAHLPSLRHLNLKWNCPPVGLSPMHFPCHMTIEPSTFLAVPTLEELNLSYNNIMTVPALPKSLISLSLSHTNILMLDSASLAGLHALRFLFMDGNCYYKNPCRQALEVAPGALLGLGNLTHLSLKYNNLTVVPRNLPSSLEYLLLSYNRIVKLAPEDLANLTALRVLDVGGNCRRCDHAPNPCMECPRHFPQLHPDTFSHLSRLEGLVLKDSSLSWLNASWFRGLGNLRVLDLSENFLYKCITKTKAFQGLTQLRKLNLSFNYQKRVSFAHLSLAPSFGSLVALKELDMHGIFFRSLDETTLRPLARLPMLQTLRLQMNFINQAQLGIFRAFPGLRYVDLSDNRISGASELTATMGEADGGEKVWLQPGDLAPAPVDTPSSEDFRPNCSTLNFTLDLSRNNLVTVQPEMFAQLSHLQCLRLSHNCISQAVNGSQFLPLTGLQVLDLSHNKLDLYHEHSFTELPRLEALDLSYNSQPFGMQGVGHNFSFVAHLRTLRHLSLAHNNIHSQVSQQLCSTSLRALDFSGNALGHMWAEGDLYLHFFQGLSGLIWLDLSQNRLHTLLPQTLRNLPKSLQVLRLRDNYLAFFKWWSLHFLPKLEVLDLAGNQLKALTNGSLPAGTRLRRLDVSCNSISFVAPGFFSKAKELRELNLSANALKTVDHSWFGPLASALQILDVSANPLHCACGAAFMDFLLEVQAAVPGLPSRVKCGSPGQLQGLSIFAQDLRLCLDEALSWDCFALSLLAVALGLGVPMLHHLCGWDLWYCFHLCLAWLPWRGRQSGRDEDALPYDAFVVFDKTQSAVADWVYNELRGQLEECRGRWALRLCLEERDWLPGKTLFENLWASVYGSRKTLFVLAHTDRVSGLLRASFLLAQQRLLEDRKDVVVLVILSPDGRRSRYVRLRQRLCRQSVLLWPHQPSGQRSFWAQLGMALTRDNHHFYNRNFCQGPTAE
Method in brief: as §1

SMILES | IC50 (human TLR7) [µM] | IC50 (human TLR8) [µM] | IC50 (human TLR9) [µM]
COc1ccc(-c2[nH]c3ccc(N4CCC(N5CCN(C6CCN(C)CC6)CC5)CC4)cc3c2C(C)C)cc1OC [Example 99, 2-(3,4-dimethoxyphenyl)-3-isopropyl-5-(4-(4-(1-methylpiperidin-4-yl)piperazin-1-yl)piperidin-1-yl)-1H-indole] | 0.011 | 0.062 | 0.538
CNC1(CC#N)CCN(c2ccc3[nH]c(-c4ccc(OC)c(OC)c4)c(C(C)C)c3c2)CC1 [Example 112, 2-(1-(2-(3,4-dimethoxyphenyl)-3-isopropyl-1H-indol-5-yl)-4-(methylamino)piperidin-4-yl)acetonitrile] | 0.062 | 0.0094 | 6.18
COc1ccc(-c2[nH]c3ccc(N4CCC(N5CCCC5)CC4)cc3c2C(C)C)cc1OC [Example 70, 2-(3,4-dimethoxyphenyl)-3-isopropyl-5-(4-(pyrrolidin-1-yl)piperidin-1-yl)-1H-indole] | 0.13 | 0.0031 | 1.7
COc1ccc(-c2[nH]c3ccc(NC4CC(C)(C)N(C)C(C)(C)C4)cc3c2C(C)C)cc1OC [Example 103, 2-(3,4-dimethoxyphenyl)-3-isopropyl-N-(1,2,2,6,6-pentamethylpiperidin-4-yl)-1H-indol-5-amine] | 1.12 | 0.0082 | 2.67
